From patent publication US11541130B2, “Systems and methods for nucleic acid expression in vivo” (DNARx, priority 2017, dated 2023)

Columns and labels:
[1] = assay type: in vivo; conditions: mice
[2] = in vivo; cited from earlier work

Rituximab: anti-CD20 monoclonal antibody expressed in mice from plasmid vector containing Rituximab cDNA
Duration of serum anti-CD20 mAb (Rituximab) expression ([1]; after a single sequential IV injection, 1050 nmol DOTAP 2.5% DP, 75 ug plasmid): over 275 days

dexamethasone palmitate
Serum anti-CD20 mAb (Rituximab) level, in words ([1]; ELISA 24 hrs after sequential injection (Example 18: also over time)): further increases gene expression in vivo

B1: Neupogen: recombinant human G-CSF protein (protein, UniProt P09919 31-207, looked up)
Granulocyte …: TPLGPASSLPQSFLLKCLEQVRKIQGDGAALQEKLVSECATYKLCHPEELVLLGHSLGIPWAPLSSCPSQALQLAGCLSQLHSGLFLYQGLLQALEGISPELGPTLDTLQLDVADFATTIWQQMEELGMAPALQPTQGAMPAFASAFQRRAGGVLVASHLQSFLEVSYRVLRHLAQP
modifications: filgrastim
notes: recombinant human G-CSF protein
Time for serum HG-CSF levels to return to baseline after each daily dose [2]: approximately 14 hours
